Source: publication PMC8398847, “Isavuconazole: Thermodynamic Evaluation of Processes Sublimation, Dissolution and Partition in Pharmaceutically Relevant Media” (Molecules, 2021)

Assays:
[1] = PXRD analysis of bottom phases after solubility experiments; format: physicochemical; conditions: all the studied solvents; no solvated forms
Description: The IVZ solubility values in buffer solutions of different acidity, ethanol, propanol, 1-octanol and hexane within the temperature range of 293.15–313.15 K were determined by the isothermal saturation method and are presented in Table 2 and Figure 5. After the solubility experiments, the bottom phases were removed from the saturated solutions and analyzed by the PXRD method.
After the solubility study was complete, PXRD analysis was performed on isavuconazole powders recovered from solvents. All samples were measured at 40 kV and 40 mA using a Bruker D8 Advance diffractometer with CuKa radiation (λ = 1.5406 Å) at room temperature. Diffraction patterns for the samples were collected by changing the angle of diffraction (2θ) from 5° to 30° with a step size 0.03°.

[2] = Dissolution thermodynamics: ideal solubility, activity coefficients at infinite dilution, excess functions; format: physicochemical
From the text: The temperature dependence of solute solubility is described by the thermodynamic relationship:(26) lnx=lnxid−lnγ=ΔmH/RT[T−Tm/T]+∫TmT∫TmT(CpL−CpS)dT/RT^2−lnγ where x, xid, γ, Tm, ΔmH, ΔCp=CpL−CpS , R, and T represent the solubility mole fraction of the solute in solution, ideal mole fraction solubility of the solute, activity coefficient of the solute in solution, melting temperature of the solute, enthalpy of melting of the pure solute, differential molar heat capacity of the pure solute, gas constant and temperature, respectively. If the solubility or equilibrium mole fraction of a compound in solvents studied is low, it is assumed that the last term in Equation (26) denotes the infinite dilution activity coefficient lnγ^∞, which can be expressed as:(27) lnγ∞=ΔHsolE/RT−ΔSsolE/R where ΔHsolE and ΔSsolE represent the partial molar excess enthalpy, and partial molar excess entropy, respectively, and are assumed to be temperature independent. As the quantity ΔCp is assumed to be negligible and considered to be zero [52], substituting ΔCp = 0 into Equation (26) simplifies to (28) lnxid=−ΔHm/RTmln[Tm/T]

solid-phase stability during solubility experiments (PXRD) [1]: stable
lnγ^∞ ([2]; 1-octanol, 293.15 K): 2.40
G^E ([2]; 1-octanol, 298.15 K): 1.4 ± 0.048 kcal/mol
H^E ([2]; 1-octanol, 298.15 K): 0.865 ± 0.024 kcal/mol
S^E ([2]; 1-octanol, 298.15 K): −7.5 ± 0.3 J·mol^−1·K^−1
TS^E ([2]; 1-octanol, 298.15 K): -0.533 kcal/mol
lnγ^∞ ([2]; 1-octanol, 298.15 K): 2.36
ςH^E ([2]; 1-octanol, 298.15 K): 61.9%
ςTS^E ([2]; 1-octanol, 298.15 K): 38.1%
lnγ^∞ ([2]; 1-octanol, 303.15 K): 2.34
lnγ^∞ ([2]; 1-octanol, 308.15 K): 2.32
lnγ^∞ ([2]; 1-octanol, 313.15 K): 2.30
lnγ^∞ ([2]; 1-propanol, 293.15 K): 2.16
G^E ([2]; 1-propanol, 298.15 K): 1.25 ± 0.048 kcal/mol
H^E ([2]; 1-propanol, 298.15 K): 1.19 ± 0.024 kcal/mol
S^E ([2]; 1-propanol, 298.15 K): −0.9 ± 0.04 J·mol^−1·K^−1
TS^E ([2]; 1-propanol, 298.15 K): -0.0669 kcal/mol
lnγ^∞ ([2]; 1-propanol, 298.15 K): 2.12
ςH^E ([2]; 1-propanol, 298.15 K): 94.7%
ςTS^E ([2]; 1-propanol, 298.15 K): 5.3%
lnγ^∞ ([2]; 1-propanol, 303.15 K): 2.09
lnγ^∞ ([2]; 1-propanol, 308.15 K): 2.06
lnγ^∞ ([2]; 1-propanol, 313.15 K): 2.03
lnγ^∞ ([2]; buffer pH 1.2, 293.15 K): 11.51
G^E ([2]; buffer pH 1.2, 298.15 K): 6.84 ± 0.12 kcal/mol
H^E ([2]; buffer pH 1.2, 298.15 K): -1.54 ± 0.024 kcal/mol
S^E ([2]; buffer pH 1.2, 298.15 K): −117.5 ± 4.1 J·mol^−1·K^−1
TS^E ([2]; buffer pH 1.2, 298.15 K): -8.372 kcal/mol
lnγ^∞ ([2]; buffer pH 1.2, 298.15 K): 11.55
ςH^E ([2]; buffer pH 1.2, 298.15 K): 15.3%
ςTS^E ([2]; buffer pH 1.2, 298.15 K): 84.7%
lnγ^∞ ([2]; buffer pH 1.2, 303.15 K): 11.59
lnγ^∞ ([2]; buffer pH 1.2, 308.15 K): 11.64
lnγ^∞ ([2]; buffer pH 1.2, 313.15 K): 11.67
lnγ^∞ ([2]; buffer pH 2.0, 293.15 K): 12.82
G^E ([2]; buffer pH 2.0, 298.15 K): 7.58 ± 0.14 kcal/mol
H^E ([2]; buffer pH 2.0, 298.15 K): 1.24 ± 0.072 kcal/mol
S^E ([2]; buffer pH 2.0, 298.15 K): −88.9 ± 5.1 J·mol^−1·K^−1
TS^E ([2]; buffer pH 2.0, 298.15 K): -6.334 kcal/mol
lnγ^∞ ([2]; buffer pH 2.0, 298.15 K): 12.80
ςH^E ([2]; buffer pH 2.0, 298.15 K): 16.4%
ςTS^E ([2]; buffer pH 2.0, 298.15 K): 83.6%
lnγ^∞ ([2]; buffer pH 2.0, 303.15 K): 12.76
lnγ^∞ ([2]; buffer pH 2.0, 308.15 K): 12.72
lnγ^∞ ([2]; buffer pH 2.0, 313.15 K): 12.69
lnγ^∞ ([2]; buffer pH 7.4, 293.15 K): 13.26
G^E ([2]; buffer pH 7.4, 298.15 K): 7.82 ± 0.14 kcal/mol
H^E ([2]; buffer pH 7.4, 298.15 K): 1.7 ± 0.024 kcal/mol
S^E ([2]; buffer pH 7.4, 298.15 K): −85.9 ±2.9 J·mol^−1·K^−1
TS^E ([2]; buffer pH 7.4, 298.15 K): -6.12 kcal/mol
lnγ^∞ ([2]; buffer pH 7.4, 298.15 K): 13.21
ςH^E ([2]; buffer pH 7.4, 298.15 K): 21.7%
ςTS^E ([2]; buffer pH 7.4, 298.15 K): 78.3%
lnγ^∞ ([2]; buffer pH 7.4, 303.15 K): 13.15
lnγ^∞ ([2]; buffer pH 7.4, 308.15 K): 13.11
lnγ^∞ ([2]; buffer pH 7.4, 313.15 K): 13.08
entropy term ζTS^E ([2]; buffer solutions): > 78%
lnγ^∞ ([2]; ethanol, 293.15 K): 2.00
G^E ([2]; ethanol, 298.15 K): 1.15 ± 0.024 kcal/mol
H^E ([2]; ethanol, 298.15 K): 1.72 ± 0.024 kcal/mol
S^E ([2]; ethanol, 298.15 K): 8.0 ± 0.3 J·mol^−1·K^−1
TS^E ([2]; ethanol, 298.15 K): 0.569 kcal/mol
lnγ^∞ ([2]; ethanol, 298.15 K): 1.95
ςH^E ([2]; ethanol, 298.15 K): 75.2%
ςTS^E ([2]; ethanol, 298.15 K): 24.8%
lnγ^∞ ([2]; ethanol, 303.15 K): 1.91
lnγ^∞ ([2]; ethanol, 308.15 K): 1.86
lnγ^∞ ([2]; ethanol, 313.15 K): 1.81
lnγ^∞ ([2]; hexane, 293.15 K): 7.12
G^E ([2]; hexane, 298.15 K): 4.16 ± 0.072 kcal/mol
H^E ([2]; hexane, 298.15 K): 3.033 ± 0.024 kcal/mol
S^E ([2]; hexane, 298.15 K): −15.8 ± 0.4 J·mol^−1·K^−1
TS^E ([2]; hexane, 298.15 K): -1.13 kcal/mol
lnγ^∞ ([2]; hexane, 298.15 K): 7.03
ςH^E ([2]; hexane, 298.15 K): 72.9%
ςTS^E ([2]; hexane, 298.15 K): 27.1%
lnγ^∞ ([2]; hexane, 303.15 K): 6.95
lnγ^∞ ([2]; hexane, 308.15 K): 6.86
lnγ^∞ ([2]; hexane, 313.15 K): 6.79
SMILES: C[C@@H](c1nc(-c2ccc(C#N)cc2)cs1)[C@](O)(Cn1cncn1)c1cc(F)ccc1F [IVZ, Isavuconazole]
